Laboratory results reported in patent US5854015A, “Method of making pure 3R-3'R stereoisomer of zeaxanthin for human ingestion” (priority 1995, dated 1998).

Columns and labels:
[1] = cited from earlier work
[2] = in vivo
Description: Birds in the C+ group are fed a standard commercial diet which contains several carotenoids; this diet also contains synthetic alpha-tocopherol (Vitamin E) as an additive.

[3] = macular degeneration; cited from earlier work
[4] = of all known carotenoids; cited from earlier work
chickens = details: cited from earlier work
[5] = Pasteurization of cell culture by heating; format: physicochemical; details: stabilizers added
Description: After the stabilizing compounds are added, a bacterial cell culture can be pasteurized by heating to 55° C. for 25 minutes.
After the stabilizing compounds are added, the cell culture is pasteurized by heating to 55° C. for 25 to 50 minutes.

[6] = per-weight basis; cited from earlier work
[7] = Feeding of F. multivorum cell paste to birds or fish; format: in vivo; details: cell paste fed directly
Description: Although this option has not yet been fully evaluated, it is possible that the Flavobacterium multivorum cells themselves, in intact form and possibly even in a viable state, may be suitable for direct ingestion by humans. A substantial number of human foods (including cheese, yogurt, beer, etc.) contain viable or killed-but-intact microbial cells, and there is no known pathogenicity associated with the F. multivorum cells isolated by Applied Food Biotechnology, Inc. They were isolated from a relatively cold artesian waterway, and since they are adapted to living in cold water, they cannot survive or reproduce well at temperatures inside the human body. […] When fed directly in the form of a cell paste to animals such as birds or fish, these cells appear to be well-suited as delivery vehicles for zeaxanthin.

CC1=C(/C=C/C(C)=C/C=C/C(C)=C/C=C/C=C(C)/C=C/C=C(C)/C=C/C2=C(C)C(=O)CCC2(C)C)C(C)(C)CCC1=O [Canthaxanthin]
crystal formation in retinal tissue ([1]; in vivo): can cause crystal formation which can destroy retinal cells and tissue | deposition in human skin ([1]; in vivo): is deposited in human skin | displacement of lutein in retinal tissue ([1]; in vivo): can displace lutein | retinal toxicity ([1]; ingested): shown to cause retinal maculopathy | Concentration in retina [2]: 1.7 ng per mg retina

CC1=C[C@H](O)CC(C)(C)[C@H]1/C=C/C(C)=C/C=C/C(C)=C/C=C/C=C(C)/C=C/C=C(C)/C=C/C1=C(C)C[C@@H](O)CC1(C)C [Lutein]
Concentration in retina [2]: 1.0 ng per mg retina

CC1=C(/C=C/C(C)=C/C=C/C(C)=C/CO)C(C)(C)CCC1 [Retinol (Vit. A)]
Concentration in retina [2]: 5.8 ng per mg retina | benefits in the retina [3]: very limited

CC(C=CC=C(C)C=CC1=C(C)CCCC1(C)C)=CC=CC=C(C)C=CC=C(C)C=CC1C(C)=CC(O)CC1(C)C (stereo not drawn) [alpha-Cryptoxanthan]
Concentration in retina [2]: 1.4 ng per mg retina

Cc1c(C)c2c(c(C)c1O)CCC(C)(CCCC(C)CCCC(C)CCCC(C)C)O2 (stereo not drawn) [alpha-Tocopherol]
Concentration in retina [2]: 15.6 ng per mg retina | benefits in the retina [3]: very limited

Cc1c(O)cc2c(c1C)O[C@](C)(CCC[C@H](C)CCC[C@H](C)CCCC(C)C)CC2 [gamma-Tocopherol]
Concentration in retina [2]: 5.0 ng per mg retina

CC(C)=CCC/C(C)=C/C=C/C(C)=C/C=C/C(C)=C/C=C/C=C(C)/C=C/C=C(C)/C=C/C=C(\C)CCC=C(C)C [lycopene]
singlet oxygen quenching [4]: best singlet oxygen quencher of all known carotenoids

CC1=C(/C=C/C(C)=C/C=C/C(C)=C/C=C/C=C(C)/C=C/C=C(C)/C=C/C2=C(C)C[C@@H](O)CC2(C)C)C(C)(C)C[C@H](O)C1 [zeaxanthin, 3,3'-dihydroxy-β-β-carotene]
coloration of chickens fed cells and their zeaxanthin pigment (chickens; cells ATCC 21081 and 21588, U.S. Pat. No. 3,891,504): caused suitable coloration | coloring potency relative to lutein (chickens; per-weight basis, skin and egg yolks): 2-3 times | damage to zeaxanthin on pasteurization ([5]; 55° C. for 25 to 50 minutes): without damaging the zeaxanthin | damage to zeaxanthin on pasteurization ([5]; 55° C. for 25 minutes): without damaging the zeaxanthin | effectiveness in imparting color relative to lutein [6]: several times more effective | Concentration in retina [2]: 4.7 ng per mg retina | absorption and tissue deposition after feeding [7]: absorbed into the bloodstream and deposited into various tissues at expected and appropriate tissue locations

CC1=C(/C=C/C(C)=C/C=C/C(C)=C/C=C/C=C(C)/C=C/C=C(C)/C=C/C2=C(C)CCCC2(C)C)C(C)(C)CCC1 [β-Carotene]
Detection of β-Carotene in retinas [2]: No β-Carotene was detected | benefits in the retina [3]: very limited
